From article PMC3258254, “Intestinal Absorption and First-Pass Metabolism of Polyphenol Compounds in Rat and Their Transport Dynamics in Caco-2 Cells” (PLoS ONE, 2012)

Assays:
Caco-2 cells [1] = assay: Cellular uptake / intracellular accumulation in Caco-2 cells, with or without transporter inhibitors; format: in vitro ADME, human; conditions: for Intracellular accumulation / uptake in the presence of phloridzin: 50 µM phloridzin (SGLT1 inhibitor); for Time of maximum intracellular accumulation (given as Cmax): 50 µM, parent compound in Caco-2 cells; for Intracellular accumulation after pre-treatment with cyclosporine A: 100 µM cyclosporine A (P-glycoprotein and MRP2 inhibitor); for Intracellular accumulation after pre-treatment with verapamil: 100 µM verapamil (P-glycoprotein inhibitor)
Experimental: Caco-2 cells, derived from human colorectal adenocarcinoma cells, were obtained from the American Type Culture Collection (Manassas, VA, USA) and maintained in plastic culture flasks (Corning Costar, Cambridge, MA, USA). […] Cells were subcultured to 80% confluency. For all cellular uptake studies of polyphenols, Caco-2 cells were seeded at a cell density of 6×10^5 cells•cm^–2 on six-well plastic plates. Cells were used 14 to 21 days after seeding. The culture medium was replaced with fresh medium 24 h before the uptake experiments. Polyphenol compounds (50 µM) were added to evaluate the uptake characteristics of Caco-2 cells. To determine the intracellular concentration of polyphenols, the cell lysate was obtained by subjecting the drug-containing cells to three freeze-thaw cycles in liquid nitrogen. Protein concentrations were measured using the Bradford method with bovine serum albumin as a standard. For transport experiments, Caco-2 cells were seeded at a cell density of 1×10^5 cells•cm^−2 on Millicell Cell Culture Inserts (Millipore, Billerica, MA, USA). […] The culture medium was replaced with fresh medium 24 h before the transport experiments. Polyphenol compounds (50 µM) were added from the apical or basolateral side to evaluate the transport characteristics of the cells. […] The samples were collected and stored at −70°C until needed for analysis.

rat small intestine = assay: In situ intestinal perfusion model (isolated rat small intestine, luminal and vascular perfusion); format: in vivo
Experimental: The rats were anaesthetized with an intra-abdominal injection of a mixture containing 40 mg•kg^–1 sodium phenobarbital. The animals were then heparinized (90 U•kg^–1) via the vena caudalis. […] Briefly, a segment of intestine between 7 and 11 cm long was identified and separated and silicone tubing was placed inside both ends of the segment. The tube at the proximal side was connected to a peristaltic pump for luminal perfusion.

[2] = Pharmacokinetics in rat plasma after oral administration of polyphenols; conditions: for AUC / Cmax: 50 µmol•kg^–1; for K / T1/2Ke / Tpeak: rat plasma, oral 50 µmol•kg^–1, mean ± SD, n = 6
Text: Male Sprague-Dawley rats (70–110 days old) weighing between 270 g and 320 g were obtained from the experimental animal centre of the Fourth Military Medical University, Xi'an, China. The rats were subjected to fasting overnight, with free access to water before the day of experiment.
The polyphenol compounds solution, prepared in 0.5% sodium carboxyl methyl cellulose (CMC-Na), were orally administrated to the rats using a dose of 50 µmol•kg^–1. Blood samples were collected from the vena abdominalis under light ether anaesthesia at different times (0.08, 0.17, 0.5, 1, 2, 4, 8, 12, 16, 24 and 36 h). The samples were immediately centrifuged for 10 min at 7185 g to obtain plasma, which was then frozen at −70°C until required for analysis.
Metabolite samples were analyzed after treatment with β-glucuronidase or sulphatase [21]–[22]. The samples (0.2 mL) were extracted with 1 mL ethyl acetate by vigorous vortex mixing for 1 min, then centrifuged at 3000× g at room temperature for 10 min. The supernatants were evaporated to dryness under N2, reconstituted in 100 µL of methanol, and analyzed for the presence of polyphenols and their derivatives using liquid chromatography coupled with tandem mass spectrometry (LC/MS/MS) using a Quattro Premier system operating under MassLynx MS Software, v4.1 (Waters Corporation, Milford, MA, USA). […] Quantitation was performed by multiple reaction monitoring of the deprotonated precursor ion and the related product ion for these polyphenols using the internal standard method with peak area ratio [23]–[24]. Collision-induced dissociation was achieved using argon as the collision gas. Standard solutions of the polyphenol compounds (1 µg•mL^–1) were applied to optimize the detection conditions in the presence of mobile phase. […] The column temperature and flow rate were 25°C and 0.2 mL⋅min^–1, respectively.

Caco-2 cells [3] = assay: Transport (permeability, Papp) across Caco-2 cell monolayers; format: in vitro ADME, human; conditions: 50 µM, parent compound
Experimental: (§1) Caco-2 cells, derived from human colorectal adenocarcinoma cells, were obtained from the American Type Culture Collection (Manassas, VA, USA) and maintained in plastic culture flasks (Corning Costar, Cambridge, MA, USA). The cells were cultured in Dulbecco's modified Eagle's minimal essential medium supplemented with 1% non-essential amino acids, 1% L-glutamine, 20% foetal bovine serum, 100 U•mL^–1 penicillin, and 0.1 mg•mL^–1 streptomycin, and were grown in a humidified atmosphere of 5% CO2 in air at 37°C (Figure S1). Cells were subcultured to 80% confluency.
(§2) For transport experiments, Caco-2 cells were seeded at a cell density of 1×10^5 cells•cm^−2 on Millicell Cell Culture Inserts (Millipore, Billerica, MA, USA). Cells were used 19 to 21 days after seeding, by which time the transepithelial electrical resistance value was >300 Ω•cm^–2. The culture medium was replaced with fresh medium 24 h before the transport experiments. Polyphenol compounds (50 µM) were added from the apical or basolateral side to evaluate the transport characteristics of the cells. To investigate the role of different transporters, Caco-2 cells were preincubated with verapamil (an inhibitor of P-glycoprotein), cyclosporine A (a dual inhibitor of P-glycoprotein and multi-drug resistance protein 2, MRP2), or phloridzin, (a selective inhibitor of sodium/glucose cotransporter 1, SGLT1) to investigate the absorptive and transport changes of the polyphenol compounds [19]–[20]. The samples were collected and stored at −70°C until needed for analysis.

[4] = as above; format: in vitro ADME, human; conditions: human, mean ± SD; for Papp A→B at 50 µM: Caco-2, apical to basolateral, n = 6, read-out: Papp AP to BL; for Papp B→A at 50 µM: Caco-2, basolateral to apical, n = 6, read-out: Papp BL to AP
Experimental: as §1, §2

[5] = male, Sprague-Dawley, rat, plasma, po
[6] = male, Sprague-Dawley, rat, in vivo, po
[7] = 1500 nmol applied, perfusion 60 min
[8] = 1500 nmol applied, perfusion 60 min, mean ± SD, n = 3

| Structure (SMILES) | Intracellular accumulation / uptake in the presence of phloridzin (Caco-2 cells [1]) | Time of maximum intracellular accumulation (given as Cmax) (Caco-2 cells [1]) | Intracellular accumulation after pre-treatment with cyclosporine A (Caco-2 cells [1]) | Intracellular accumulation after pre-treatment with verapamil (Caco-2 cells [1]) | Total percentage of parent compound and metabolites, luminal side compared with vascular side (rat small intestine; rat, in vivo) | Luminal effluent, % of delivered dose (rat small intestine; rat, in vivo, 60 min) | AUC [2, 5] | Cmax [2, 5] | K [2] | T1/2Ke [2] | Tpeak [2] | Permeability value BL to AP compared with AP to BL (Caco-2 cells [3]) | Papp A→B at 50 µM [4] | Papp B→A at 50 µM [4] | other results |
| --- | --- | --- | --- | --- | --- | --- | --- | --- | --- | --- | --- | --- | --- | --- | --- |
| O=c1cc(-c2ccc(O)cc2)oc2cc(O)cc(O)c12 [Apigenin] | no changes were observed | 10 min | clearly increased | clearly increased | two- to three-fold greater | 53.87 ^2% | 659 ± 25 ng·h/mL | 42 ± 2 ng/mL | 0.16±0.02 ^1 h^−1 | 2.11 ± 0.03 h | 0.50 ± 0.01 h | no changes | 13.8 ± 1.21 ×10⁻⁶ cm/s | 12.9 ± 2.54 ×10⁻⁶ cm/s |  |
| Cc1cc(O)c2c(c1)C(=O)c1cccc(O)c1C2=O [Chrysophanol] | reduced the cellular uptake | 10 min | increased the uptake | increased the uptake | no clear differences | 36.82 ^2% | 1720 ± 57 ng·h/mL | 326 ± 18 ng/mL | 0.08 ± 0.01 h⁻¹ | 8.00 ± 0.28 h | 3.00 ± 0.01 h | much greater (by a factor of two) | 10.8 ± 2.34 ×10⁻⁶ cm/s | 27.4 ± 4.19 ×10⁻⁶ cm/s | Vascular side, % of delivered dose (rat small intestine; rat, in vivo, 60 min): 32.22 ^2% |
| Cc1cc(O)c2c(c1)C(=O)c1cc(O)cc(O)c1C2=O [Emodin] | reduced the cellular uptake | 10 min | increased the uptake | increased the uptake |  |  |  |  | 0.23 ± 0.04 h⁻¹ | 2.93 ± 0.04 h | 0.50 ± 0.01 h | much greater (by a factor of two) | 9.52 ± 1.45 ×10⁻⁶ cm/s | 24.4 ± 3.22 ×10⁻⁶ cm/s | Total percentage of parent compound and metabolites, luminal side compared with vascular side (rat small intestine; isolated intestine perfusion, estimated): two- to three-fold greater; Plasma concentration of glucuronidated metabolites relative to sulphated metabolites [2, 6]: 10 fold; AUC [2, 6]: 809 ± 17 ng·h/mL; Cmax [2, 6]: 72 ± 6 ng/mL |
| Oc1ccc(/C=C/c2cc(O)cc(O)c2)cc1 [Resveratrol] | no changes were observed | increased in a time-dependent manner | clearly increased | clearly increased |  |  | 98 ± 7 ng·h/mL | 157 ± 13 ng/mL | 0.38 ± 0.03 h⁻¹ | 1.82 ± 0.05 h |  | lower | 11.3 ± 3.45 ×10⁻⁶ cm/s | 7.86 ± 2.67 ×10⁻⁶ cm/s | Luminal effluent, % of delivered dose (rat small intestine; [7]): 35.37 ^2%; Vascular side, % of delivered dose (rat small intestine; [7]): 12.74 ^2%; Luminal effluent, amount (rat small intestine; [8]): 536 ± 27 nmol; Vascular side, amount (rat small intestine; [8]): 193 ± 11 nmol |
